Results: PubChem BioAssay AID1963834 (Molecular Pharmacology Branch, DTP, NCI, 2024)

Tested on: 873145-292-R-J1-PDC complex spheroid viability
Assay: Anticancer human tumor 873145-292-R-J1-PDC patient-derived renal clear cell carcinoma cell line growth inhibition [POLQ]
Conditions: for IC50: curve of first compound; for viability, T/C: stronger effect = lower value; active means viability on the fitted dose curve at most 10% of control; inactive means the rest
In short: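 Complex spheroid viability model combining PDC tumour cells with endothelial (HUVEC) and MSC stromal cells. Novobiocin, ART-558 or RP6685 were tested singly and in combination with standard and investigational anticancer drugs. Each was titrated in half-log steps from near clinical Cmax, or from 10 microM where Cmax was unknown.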

[1] = second compound 0.0316 µM, first compound 0.0316 µM
[2] = second compound 0.0316 µM, first compound 0.1 µM
[3] = second compound 0.0316 µM, first compound 0.316 µM
[4] = second compound 0.0316 µM, first compound 1 µM
[5] = second compound 0.0316 µM, first compound 3.16 µM
[6] = second compound 0.0316 µM, first compound 10 µM
[7] = second compound 0.1 µM, first compound 0.0316 µM
[8] = second compound 0.1 µM, first compound 0.1 µM
[9] = second compound 0.1 µM, first compound 0.316 µM
[10] = second compound 0.1 µM, first compound 1 µM
[11] = second compound 0.1 µM, first compound 3.16 µM
[12] = second compound 0.1 µM, first compound 10 µM
[13] = second compound 0.316 µM, first compound 0.0316 µM
[14] = second compound 0.316 µM, first compound 0.1 µM
[15] = second compound 0.316 µM, first compound 0.316 µM
[16] = second compound 0.316 µM, first compound 1 µM
[17] = second compound 0.316 µM, first compound 3.16 µM
[18] = second compound 0.316 µM, first compound 10 µM
[19] = second compound 1 µM, first compound 0.0316 µM
[20] = second compound 1 µM, first compound 0.1 µM
[21] = second compound 1 µM, first compound 0.316 µM
[22] = second compound 1 µM, first compound 1 µM
[23] = second compound 1 µM, first compound 3.16 µM
[24] = second compound 1 µM, first compound 10 µM
[25] = second compound 3.16 µM, first compound 0.0316 µM
[26] = second compound 3.16 µM, first compound 0.1 µM
[27] = second compound 3.16 µM, first compound 0.316 µM
[28] = second compound 3.16 µM, first compound 1 µM
[29] = second compound 3.16 µM, first compound 3.16 µM
[30] = second compound 3.16 µM, first compound 10 µM
[31] = second compound 10 µM, first compound 0.0316 µM
[32] = second compound 10 µM, first compound 0.1 µM
[33] = second compound 10 µM, first compound 0.316 µM
[34] = second compound 10 µM, first compound 1 µM
[35] = second compound 10 µM, first compound 3.16 µM
[36] = second compound 10 µM, first compound 10 µM
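Further: spheroids exposed to compounds for 7 days before viability readout.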
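Wherever viability, T/C is given: luminescence signal used as surrogate for viable cell content; 100% = DMSO vehicle control viability.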

CCc1cc2c(N3CCc4c(cc(Cn5ccnc5)cc4-c4cn(C)nc4C(F)(F)F)C3=O)cc(C)nc2c(OC)n1 + COC1C(OC(N)=O)C(O)C(Oc2ccc3c(O)c(NC(=O)c4ccc(O)c(CC=C(C)C)c4)c(=O)oc3c2C)OC1(C)C
inactive: viability, T/C [1] 96% | viability, T/C [2] 98.1% | viability, T/C [3] 93.6% | viability, T/C [4] 99.2% | viability, T/C [5] 86.6% | viability, T/C [6] 83% | viability, T/C [7] 92.5% | viability, T/C [8] 105% | viability, T/C [9] 96.4% | viability, T/C [10] 88.5% | viability, T/C [11] 90.4% | viability, T/C [12] 79.8% | viability, T/C [13] 113% | viability, T/C [14] 97.5% | viability, T/C [15] 94.3% | viability, T/C [16] 90.8% | viability, T/C [17] 89.2% | viability, T/C [18] 83.3% | viability, T/C [19] 99.4% | viability, T/C [20] 106% | viability, T/C [21] 78.8% | viability, T/C [22] 84.7% | viability, T/C [23] 83.6% | viability, T/C [24] 84.2% | viability, T/C [25] 99.6% | viability, T/C [26] 93% | viability, T/C [27] 99.8% | viability, T/C [28] 82.7% | viability, T/C [29] 77.5% | viability, T/C [30] 74% | viability, T/C [31] 88.1% | viability, T/C [32] 82.8% | viability, T/C [33] 101% | viability, T/C [34] 77.7% | viability, T/C [35] 92.6% | viability, T/C [36] 96.2%
> 10 µM: IC50 (second compound 0.0316 µM) | IC50 (second compound 0.1 µM) | IC50 (second compound 0.316 µM) | IC50 (second compound 1 µM) | IC50 (second compound 3.16 µM) | IC50 (second compound 10 µM)

CCc1cc2c(N3CCc4c(cc(Cn5ccnc5)cc4-c4cn(C)nc4C(F)(F)F)C3=O)ccnc2c(OC)n1 + COC1C(OC(N)=O)C(O)C(Oc2ccc3c(O)c(NC(=O)c4ccc(O)c(CC=C(C)C)c4)c(=O)oc3c2C)OC1(C)C
> 10 µM: IC50 (second compound 0.0316 µM) | IC50 (second compound 0.1 µM) | IC50 (second compound 0.316 µM) | IC50 (second compound 1 µM) | IC50 (second compound 3.16 µM) | IC50 (second compound 10 µM)
inactive: viability, T/C [1] 97.1% | viability, T/C [2] 96.5% | viability, T/C [3] 98.2% | viability, T/C [4] 97.9% | viability, T/C [5] 86.8% | viability, T/C [6] 79.6% | viability, T/C [7] 106% | viability, T/C [8] 101% | viability, T/C [9] 87.7% | viability, T/C [10] 81.5% | viability, T/C [11] 82% | viability, T/C [12] 85% | viability, T/C [13] 107% | viability, T/C [14] 90.1% | viability, T/C [15] 86.4% | viability, T/C [16] 98.7% | viability, T/C [17] 96.6% | viability, T/C [18] 83.2% | viability, T/C [19] 94.1% | viability, T/C [20] 92.4% | viability, T/C [21] 86.7% | viability, T/C [22] 104% | viability, T/C [23] 84.3% | viability, T/C [24] 74.4% | viability, T/C [25] 103% | viability, T/C [26] 98.7% | viability, T/C [27] 96.5% | viability, T/C [28] 91.8% | viability, T/C [29] 82.4% | viability, T/C [30] 91.4% | viability, T/C [31] 88.4% | viability, T/C [32] 97.5% | viability, T/C [33] 87% | viability, T/C [34] 86.2% | viability, T/C [35] 85.1% | viability, T/C [36] 78.2%
